Data from ChEMBL document CHEMBL4261482, “Development of small molecular compounds targeting cancer stem cells” (Medchemcomm, 2017).

Columns and labels:
[1] = test system: Lu-99 cell line; experiment: Antitumor activity against human LU99 cells xenografted in BALB/cSLC-nu/nu mouse assessed as tumor growth inhibition at 40 mg/kg, iv administered in liposomal formulation on day 1, 4, 8, 11, 15, 18 measured on day 22 relative to control; assay type: functional; conditions: Lu-99, iv, read-out: TGI
[2] = test system: Daudi; experiment: Cytotoxicity against human Daudi cells assessed as decrease in cell viability after 72 hrs by CCK8 assay; assay type: functional, cell-based
[3] = test system: A549; experiment: Cytotoxicity against human A549 cells assessed as decrease in cell viability after 72 hrs by CCK8 assay; assay type: functional, cell-based; conditions: A549, 72 h
[4] = test system: Lu-99 cell line; experiment: Cytotoxicity against human LU99 cells assessed as decrease in cell viability after 72 hrs by CCK8 assay; assay type: functional, cell-based; conditions: Lu-99, 72 h
[5] = test system: MIA PaCa-2; experiment: Cytotoxicity against human MIAPaCa2 cells assessed as decrease in cell viability after 72 hrs by CCK8 assay; assay type: functional, cell-based; conditions: MIA PaCa-2, 72 h
[6] = test system: HCT-116; experiment: Cytotoxicity against human HCT116 cells assessed as decrease in cell viability after 72 hrs by CCK8 assay; assay type: functional, cell-based; conditions: HCT-116, 72 h
[7] = test system: Lu-99 cell line; experiment: Antitumor activity against human LU99 cells xenografted in BALB/cSLC-nu/nu mouse assessed as tumor growth inhibition at 100 mg/kg, po qd administered for 14 days measured on day 15 relative to control; assay type: functional; conditions: Lu-99, po, read-out: TGI
[8] = test system: CWR22R; experiment: Cytotoxicity against human 22Rv1 cells assessed as decrease in cell viability after 72 hrs by CCK8 assay; assay type: functional, cell-based; conditions: 22Rv1, 72 h
[9] = test system: MKN-45; experiment: Cytotoxicity against human MKN45 cells assessed as decrease in cell viability after 72 hrs by CCK8 assay; assay type: functional, cell-based; conditions: MKN-45, 72 h
[10] = test system: UMUC3; experiment: Cytotoxicity against human UM-UC-3 cells assessed as decrease in cell viability after 72 hrs by CCK8 assay; assay type: functional, cell-based; conditions: UMUC3, 72 h
[11] = test system: DU-4475; experiment: Cytotoxicity against human DU4475 cells assessed as decrease in cell viability after 72 hrs by CCK8 assay; assay type: functional, cell-based; conditions: DU-4475, 72 h
[12] = test system: HepG2; experiment: Cytotoxicity against human HepG2 cells assessed as decrease in cell viability after 72 hrs by CCK8 assay; assay type: functional, cell-based; conditions: HepG2, 72 h
[13] = test system: T47D; experiment: Cytotoxicity against human T47D cells assessed as decrease in cell viability after 72 hrs by CCK8 assay; assay type: functional, cell-based
[14] = test system: MDA-MB-231; experiment: Cytotoxicity against human MDA-MB-231 cells assessed as decrease in cell viability after 72 hrs by CCK8 assay; assay type: functional, cell-based; conditions: MDA-MB-231, 72 h
[15] = test system: MKN-1; experiment: Cytotoxicity against human MKN1 cells assessed as decrease in cell viability after 72 hrs by CCK8 assay; assay type: functional, cell-based; conditions: MKN-1, 72 h
[16] = test system: NCI-H82; experiment: Cytotoxicity against human H82 cells assessed as decrease in cell viability after 72 hrs by MTT assay; assay type: functional, cell-based; conditions: NCI-H82, 72 h
[17] = test system: DU-4475; experiment: Antiproliferative activity against human DU4475 cells; assay type: functional, cell-based
[18] = Cytotoxicity against human KOCL48 cells assessed as decrease in cell viability after 48 hrs by MTT assay; assay type: functional, cell-based
[19] = test system: K562; experiment: Cytotoxicity against human K562 cells assessed as decrease in cell viability after 48 hrs by MTT assay; assay type: functional, cell-based; conditions: K562, 48 h
[20] = test system: NCI-H146; experiment: Cytotoxicity against human NCI-H146 cells assessed as decrease in cell viability after 72 hrs by MTT assay; assay type: functional, cell-based; conditions: NCI-H146, 72 h
[21] = Cytotoxicity against human H69AR cells assessed as decrease in cell viability after 72 hrs by MTT assay; assay type: functional, cell-based
[22] = test system: T47D; experiment: Antiproliferative activity against human T47D cells; assay type: functional, cell-based
[23] = test system: CAKI-2; experiment: Cytotoxicity against human Caki2 cells assessed as decrease in cell viability after 72 hrs by MTT assay; assay type: functional, cell-based; conditions: CAKI-2, 72 h
[24] = test system: BGC-823; experiment: Antiproliferative activity against human BGC823 cells after 24 to 96 hrs by CCK8 assay; assay type: functional, cell-based
[25] = test system: DMS-273; experiment: Cytotoxicity against human DMS273 cells assessed as decrease in cell viability after 72 hrs by MTT assay; assay type: functional, cell-based; conditions: DMS-273, 72 h
[26] = test system: KG-1; experiment: Cytotoxicity against human KG1 cells assessed as decrease in cell viability after 48 hrs by MTT assay; assay type: functional, cell-based; conditions: KG-1, 48 h
[27] = Antitumor activity against human gastric cancer cells xenografted in NOD/SCID mouse assessed as tumor growth inhibition at 15 mg/kg, iv administered once in every 2 days for 2 weeks measured on day 15 relative to control; assay type: functional; conditions: read-out: TGI
[28] = test system: A549; experiment: Antiproliferative activity against human A549 cells; assay type: functional, cell-based
[29] = test system: MV4-11; experiment: Cytotoxicity against human MV4-11 cells assessed as decrease in cell viability after 48 hrs by MTT assay; assay type: functional, cell-based; conditions: MV4-11, 48 h
[30] = test system: CWR22R; experiment: Antiproliferative activity against human 22Rv1 cells; assay type: functional, cell-based
[31] = test system: SBC-3; experiment: Cytotoxicity against human SBC3 cells assessed as decrease in cell viability after 72 hrs by MTT assay; assay type: functional, cell-based; conditions: SBC-3, 72 h
[32] = test system: CAKI-1; experiment: Cytotoxicity against human Caki1 cells assessed as decrease in cell viability after 72 hrs by MTT assay; assay type: functional, cell-based; conditions: CAKI-1, 72 h
[33] = test system: ML-2; experiment: Cytotoxicity against human ML2 cells assessed as decrease in cell viability after 48 hrs by MTT assay; assay type: functional, cell-based; conditions: ML-2, 48 h
[34] = test system: 769-P; experiment: Cytotoxicity against human 769-P cells assessed as decrease in cell viability after 72 hrs by MTT assay; assay type: functional, cell-based
[35] = test system: DMS-114; experiment: Cytotoxicity against human DMS114 cells assessed as decrease in cell viability after 72 hrs by MTT assay; assay type: functional, cell-based; conditions: DMS-114, 72 h
[36] = Cytotoxicity against human VMRC-RCW cells assessed as decrease in cell viability after 72 hrs by MTT assay; assay type: functional, cell-based
[37] = test system: A549; experiment: Antitumor activity against human A549 cells xenografted in BALB/cSLC-nu/nu mouse assessed as tumor growth inhibition at 10 mg/kg, iv qd administered for 14 days measured on day 15 relative to control; assay type: functional; conditions: read-out: TGI
[38] = test system: U-937; experiment: Cytotoxicity against human U937 cells assessed as decrease in cell viability after 48 hrs by MTT assay; assay type: functional, cell-based; conditions: U-937, 48 h
[39] = test system: A549; experiment: Antitumor activity against human A549 cells xenografted in BALB/cSLC-nu/nu mouse assessed as tumor growth inhibition at 10 mg/kg administered through oral gavage as qd for 14 days measured on day 15 relative to control; assay type: functional; conditions: read-out: TGI
[40] = test system: NCI-H524; experiment: Cytotoxicity against human NCI-H524 cells assessed as decrease in cell viability after 72 hrs by MTT assay; assay type: functional, cell-based; conditions: NCI-H524, 72 h
[41] = test system: NCI-H69; experiment: Cytotoxicity against human H69 cells assessed as decrease in cell viability after 72 hrs by MTT assay; assay type: functional, cell-based; conditions: NCI-H69, 72 h
[42] = test system: NCI-H446; experiment: Cytotoxicity against human NCI-H446 cells assessed as decrease in cell viability after 72 hrs by MTT assay; assay type: functional, cell-based; conditions: NCI-H446, 72 h
[43] = test system: NCI-H2171; experiment: Cytotoxicity against human NCI-H2171 cells assessed as decrease in cell viability after 72 hrs by MTT assay; assay type: functional, cell-based; conditions: NCI-H2171, 72 h
[44] = test system: THP-1; experiment: Cytotoxicity against human THP1 cells assessed as decrease in cell viability after 48 hrs by MTT assay; assay type: functional, cell-based; conditions: THP-1, 48 h
[45] = test system: SGC-7901; experiment: Antiproliferative activity against human SGC7901 cells after 24 to 96 hrs by CCK8 assay; assay type: functional, cell-based
[46] = test system: SBC-5; experiment: Cytotoxicity against human SBC5 cells assessed as decrease in cell viability after 72 hrs by MTT assay; assay type: functional, cell-based; conditions: SBC-5, 72 h
[47] = test system: MOLM-13; experiment: Cytotoxicity against human MOLM13 cells assessed as decrease in cell viability after 48 hrs by MTT assay; assay type: functional, cell-based; conditions: MOLM-13, 48 h
[48] = test system: KG-1a; experiment: Cytotoxicity against human KG1a cells assessed as decrease in cell viability after 48 hrs by MTT assay; assay type: functional, cell-based
[49] = test system: 786-0; experiment: Cytotoxicity against human 786-O cells assessed as decrease in cell viability after 72 hrs by MTT assay; assay type: functional, cell-based; conditions: 786-0, 72 h

Cc1cc(O)c(-c2ccc([C@@H](C)CN(C)C)cc2)c2c1[nH]c(=O)c1sccc12
inhibition in vivo at 40 mg/kg [1]: 110%
IC50 [2]: 25 nM
IC50 [3]: 31 nM
IC50 [4]: 7.6 nM
IC50 [5]: 30 nM
IC50 [6]: 33 nM
inhibition in vivo at 100 mg/kg [7]: 113%
IC50 [8]: 50 nM
IC50 [9]: 39 nM
IC50 [10]: 32 nM
IC50 [11]: 53 nM
IC50 [12]: 19 nM
IC50 [13]: 72 nM
IC50 [14]: 73 nM
IC50 [15]: 38 nM

CC(=O)c1cnc2ccc(-c3cc(Cl)c(O)c(Cl)c3)nc2c1N[C@H]1CC[C@H](CN(C)C)CC1
IC50 [16]: 1.7 nM
IC50 [17]: 2.3 nM
IC50 [18]: 16.9 nM
IC50 [19]: 33 nM
IC50 [20]: 7.9 nM
IC50 [21]: 4.4 nM
IC50 [22]: 4.3 nM
IC50 [23]: 38.7 nM
IC50 [24]: 25 nM
IC50 [25]: 8.4 nM
IC50 [26]: 16.9 nM
inhibition in vivo at 15 mg/kg [27]: 106 to 112%
IC50 [28]: 6.7 nM
IC50 [29]: 7.9 nM
IC50 [30]: 6 nM
IC50 [31]: 4.3 nM
IC50 [32]: 12.4 nM
IC50 [33]: 33.8 nM
IC50 [34]: 20.1 nM
IC50 [35]: 2.1 nM
IC50 [36]: 25.5 nM
inhibition in vivo at 10 mg/kg [37]: 108%
IC50 [38]: 69.8 nM
inhibition in vivo at 10 mg/kg [39]: 124%
IC50 [40]: 1.9 nM
IC50 [41]: 0.8 nM
IC50 [42]: 6.2 nM
IC50 [43]: 4.7 nM
IC50 [44]: 15.6 nM
IC50 [45]: 25 nM
IC50 [46]: 2.8 nM
IC50 [47]: 17.5 nM
IC50 [48]: 26.4 nM
IC50 [49]: 23.9 nM
